Key:
[1] = target: T1, Lxrα (Homo sapiens, UniProt Q13133); assay: Lxr-responsive luciferase reporter assay (Lxre + Lxrα) in SN4741 neural cells; assay type: cell-based, mouse; settings: for Lxrα activation, luciferase activity: 10 μM, 24 h
T1 construct: expressed in transfected cells; host or cells: SN4741 mouse neuronal cell line
T1 sequence (Q13133 1-447): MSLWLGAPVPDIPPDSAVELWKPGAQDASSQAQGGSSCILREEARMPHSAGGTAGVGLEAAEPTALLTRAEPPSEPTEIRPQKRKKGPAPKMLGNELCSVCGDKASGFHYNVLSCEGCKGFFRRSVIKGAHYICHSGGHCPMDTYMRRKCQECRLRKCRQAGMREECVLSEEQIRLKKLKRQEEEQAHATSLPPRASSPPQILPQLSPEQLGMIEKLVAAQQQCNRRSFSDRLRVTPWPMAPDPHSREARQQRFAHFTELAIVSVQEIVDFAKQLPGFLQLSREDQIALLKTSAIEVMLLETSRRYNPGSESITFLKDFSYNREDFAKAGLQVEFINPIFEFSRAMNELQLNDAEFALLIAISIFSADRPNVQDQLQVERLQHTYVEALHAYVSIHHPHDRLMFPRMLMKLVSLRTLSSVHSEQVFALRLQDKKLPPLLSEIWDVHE
Text: (§1) Luciferase Reporter Assay.

[2] = target: T2, Lxrβ (Homo sapiens, UniProt P55055); assay: Lxr-responsive luciferase reporter assay (Lxre + Lxrβ) in SN4741 neural cells; assay type: cell-based, mouse; settings: for Lxrβ activation, luciferase activity: SN4741 cells, 10 μM, 24 h
T2 construct: expressed in transfected cells; host or cells: SN4741 mouse neuronal cell line
T2 sequence (P55055 1-460): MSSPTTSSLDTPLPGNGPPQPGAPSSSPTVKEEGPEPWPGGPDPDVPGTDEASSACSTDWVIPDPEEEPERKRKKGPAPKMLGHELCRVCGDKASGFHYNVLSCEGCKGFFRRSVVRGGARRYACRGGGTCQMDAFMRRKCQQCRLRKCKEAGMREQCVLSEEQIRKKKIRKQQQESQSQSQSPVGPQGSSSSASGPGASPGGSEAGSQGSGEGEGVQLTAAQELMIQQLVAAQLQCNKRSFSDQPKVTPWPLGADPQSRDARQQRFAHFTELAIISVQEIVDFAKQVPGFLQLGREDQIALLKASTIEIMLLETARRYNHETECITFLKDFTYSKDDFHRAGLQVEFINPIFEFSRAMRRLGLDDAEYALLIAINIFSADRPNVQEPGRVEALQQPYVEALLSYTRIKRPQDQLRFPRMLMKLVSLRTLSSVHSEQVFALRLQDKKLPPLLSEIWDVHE
Text: as §1

[3] = target: T3, Lxrβ-LBD (Homo sapiens, UniProt P55055); assay: LanthaScreen TR-FRET Lxrβ coactivator assay; assay type: binding
T3 construct: purchased Invitrogen
T3 sequence (P55055 222-460 limits assumed): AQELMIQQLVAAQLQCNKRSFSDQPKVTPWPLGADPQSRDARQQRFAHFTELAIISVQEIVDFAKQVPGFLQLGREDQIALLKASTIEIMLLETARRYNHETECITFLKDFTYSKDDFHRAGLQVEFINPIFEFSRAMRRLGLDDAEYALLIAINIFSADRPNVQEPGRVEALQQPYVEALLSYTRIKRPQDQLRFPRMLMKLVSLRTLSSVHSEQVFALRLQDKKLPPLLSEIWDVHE
Text: Lxrβ Ligand Binding Assay. For Lxrβ ligand binding activity measurement, the applicants used the LANTHASCREEN™ TR-FRET Lxrβ Coactivator Assay (Invitrogen). The assay uses a terbium (Tb)-labeled anti-GST antibody, a fluorescein-labeled coactivator peptide and the Lxrβ-LBD tagged with glutathione-S-transferase (GST). Binding of the agonist/ligand to Lxrβ-LBD causes a conformational change that result in an increase in the affinity of the Lxrβ for the coactivator peptide. The close proximity of the fluorescently labeled coactivator peptide to the Tb-labeled antibody causes an increase in the TR-FRET signal intensity. The TR-FRET ratio of 520/495 was calculated using a Victor multi label reader with an excitation wavelength of 340 nm and emission wavelengths of 520 nm and 495 nm. The activational capacity of potential ligands was tested in a […] polypropylene plate, following the manufacturer's protocol.

[4] = tested on: Abca1, Abcg1 and Srebf1 transcript levels; assay: Quantitative PCR of Lxr target genes in SN4741 cells; assay type: cell-based, mouse; settings: SN4741 cells treated 3 h
Procedure: (§2) Quantitative PCR. Total RNA was extracted from SN4741 cells and zebrafish treated with the compounds of interest using the RNeasy Mini Kit (Qiagen), 1 μg was treated with RQ1 RNase-free DNase (Promega) and reverse transcribed using Superscript II Reverse Transcriptase (Invitrogen) and random primers (Invitrogen) (RT+ reaction). Parallel reactions without reverse transcriptase enzyme were done as a control (RT− reaction), and Sybergreen real-time quantitative PCR assays were performed. Expression levels were obtained by normalization with the value of the housekeeping gene encoding actin obtained for every sample in parallel assays.

[5] = tested on: Islet-1:GFP transgenic zebrafish embryos; assay type: in vivo
Procedure: as §2
Zebrafish Strain and Mainrenance Zebrafish were raised on a 14/10 h day/night cycle and were kept at 28.5° C. Islet-1:GFP transgenic embryos were obtained via natural spawning and staged in hours or days post fertilization (hpf and dpf) according to Kimmel et al). Embryos older than 24 hpf were treated with 0.03% phenylthiourea (PTU) to inhibit pigmentation. MO injections were performed using splice site specific zebrafish 1xr MO. MO injected embryos were immediately dechorionated and transferred to a 96 well plate and exposed to dimethyl sulfoxide (DMSO) treated or ligand treated medium.
Compound Exposure. Islet-1:GFP embryos were collected by natural mating and immediately (at 1 cell stage) dechorionated and transferred to a 96 well plate. Each of the compounds tested were obtained as 10 mM stock and diluted in embryo medium to a final concentration of 10 μM, and 200 μL was added to each well. DMSO or propan-2-ol treated embryo medium was taken as control. Ligand solutions were replaced every 12 h with fresh ligand solution prepared in PTU treated embryo medium. Embryos were collected at 48 hpf, fixed for 4 h at room temperature with 4% paraformaldehyde and then washed and kept in PBST. Immunocytochemistry was performed using an anti-GFP antibody and fluorescence was viewed and photographed using a Zeiss Axioplan compound microscope and a Zeiss Axiocam digital camera.

[6] = tested on: mouse E11.5 brain primary cultures; assay: Mouse E11.5 brain primary cultures (Islet1+, active caspase 3+, BrdU, Nkx6.1 counts); assay type: cell-based; settings: for Number of Islet1+ cells: wild type cultures, 3 DIV; for Number of active caspase-3+ cells: 10 μM 3β,7α-diHCA, 3βH,7O-CA, 25-HC, low concentrations of 3β,7β-diHCA, 3β-HCA
Procedure: Primary Brain Cultures. Brains from E11.5 mice were manually dissected, plated on poly-D-lysine (150,000 cells/cm2) and grown in serum-free N2 media consisting of 1:1 mixture of F12 and DMEM with 10 ng/mL insulin, 100 μg/mL apo-transferrin, 100 μM putrescine, 20 nM progesterone, 30 nM selenium, 6 mg/mL glucose, and 1 mg/mL BSA. Cells were treated for 3 days in vitro (DIV) with the compounds of interest, fixed with 4% PFA and processed for staining using appropriate antibodies.
For BrdU analysis, cells were treated with BrdU one hour after plating and media was replaced with fresh medium after 16 h. After a further 2 days in culture, cells were treated for 30 min with 2N HCl and then immunocytochemistry was performed to evaluate the number of double BrdU+;Islet1+ cells (a measure of motor neuron neurogenesis). Hoechst staining was performed by permeabilizing cells with a 0.3% Triton-X 100/PBS solution for 5 min followed by incubation with Hoechst 33258 (Sigma) for 10 min.
Antibodies and Detection Procedures. Cells were fixed in 4% PFA, washed in PBS and blocked in 5% normal goat serum/PBS for 1 h at room temperature. Primary antibodies were diluted in PBS (pH 7.4), 0.3% Triton X-100, 1% BSA and incubations were carried out overnight at +4° C. or at room temperature for 2 h. The antibodies used were anti-: BrdU (1:400; Abeam), Islet-1 (1:100; Developmental Studies Hybridoma Bank), cleaved caspase-3 (Asp175) (1:100; Cell Signaling Technology), tyrosine hydroxylase (TH;1:1000; Pel-Freeze) GABA (1:1,000; Sigma), Brn3a (1:250; Millipore), Nkx6.1 (1:200; Novus Biologicals), choline acetyltransferase (ChAT; 1:500; Millipore) and appropriate secondary antibodies (Jackson ImmunoResearch or Alexa). Cells positive for the corresponding marker were counted directly at the microscope at a magnification of 20 x. Cells were counted in every well, in eight consecutive fields (going from one side of the well to the other, passing through the center), in three different wells per experiment and in three different experiments per condition. Random pictures of the wells were taken for every condition to document the result, and representative pictures were subsequently selected to represent the quantitative data. Photos were acquired with a Zeiss Axioplan microscope and a Hamamatsu camera C4742-95 using the Openlab software.

[7] = target: T4, Fxr (Homo sapiens, UniProt Q96RI1); assay: Fxr-responsive luciferase reporter assay (Fxre + Fxr) in SN4741 neural cells; assay type: cell-based, mouse; settings: 24 h
T4 construct: expressed in transfected cells; host or cells: SN4741 mouse neuronal cell line
T4 sequence (Q96RI1 1-486): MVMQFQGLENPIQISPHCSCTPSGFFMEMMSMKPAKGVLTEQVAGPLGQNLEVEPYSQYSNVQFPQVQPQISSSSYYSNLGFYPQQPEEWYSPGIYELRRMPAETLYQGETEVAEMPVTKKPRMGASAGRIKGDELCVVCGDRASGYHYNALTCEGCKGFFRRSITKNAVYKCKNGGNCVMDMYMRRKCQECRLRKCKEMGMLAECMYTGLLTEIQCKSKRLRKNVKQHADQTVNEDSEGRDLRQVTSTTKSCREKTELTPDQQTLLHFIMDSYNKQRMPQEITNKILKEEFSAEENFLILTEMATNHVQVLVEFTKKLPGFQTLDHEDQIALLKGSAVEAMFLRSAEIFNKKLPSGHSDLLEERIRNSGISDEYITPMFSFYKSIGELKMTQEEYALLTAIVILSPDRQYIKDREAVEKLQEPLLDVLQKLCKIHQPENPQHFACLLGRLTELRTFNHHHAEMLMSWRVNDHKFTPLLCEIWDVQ
Procedure: (§3) LC-ESI-MS on the LTQ-Orbitrap LC-ESI-MS and LC-ESI-MSn was performed using an Ultimate 3000 HPLC system (Dionex, Surrey, UK) linked to the ESI source of a LTQ-Orbitrap XL or LTQ-Orbitrap Velos (Thermo Fisher, San Jose, CA) mass spectrometer. Luciferase Reporter Assay. The ability of oxysterols and their acidic metabolites to activate several nuclear receptors i.e. Lxrα and β, Fxr, Vdr, Nurrl was tested in luciferase assays. Transient transfection studies were performed in the mouse neuronal cell line SN4741. This cell line was selected as the oxysterols and acidic metabolites tested were initially identified in CSF. Cells were plated in 24-well plates (5×10^5 cells/well) 24 hr before transfection and transfected with 1 μg of plasmid DNA/well complexed with 2 μL of Lipofectamine 2000 (Invitrogen). Cells were transfected with 400 ng of a Lxr-, Fxr-, Vdr- or Nurrl−responsive luciferase reporter construct, and 200 ng of Lxrα, Lxrβ, Fxr, Vdr or Nurrl. A reporter gene expressing the Renilla luciferase (pRL-TK, Promega) was co-transfected in all experiments as an internal control for normalization of transfection efficiency. After a 12 h incubation, the lipid/DNA mix was replaced with fresh 2.5% serum medium containing vehicle or appropriate ligand (10 μM), as specified in each experiment. […]

[8] = tested on: Nur-related factor 1 (Nurrl)/retinoid X receptor (Rxr) heterodimers; settings: SN4741 cells, 10 μM
Procedure: as §3

CC(CCC[C@@H](C)[C@H]1CC[C@H]2[C@@H]3[C@@H](O)C=C4C[C@@H](O)CC[C@]4(C)[C@H]3CC[C@]12C)C(=O)O (stereo partly drawn) [3β,7β-diHCA, 3β,7β-dihydroxycholest-5-en-26-oic acid]
Lxrα activation, luciferase activity [1]: have the ability to activate both Lxrs | Lxrβ activation, luciferase activity [2]: have the ability to activate both Lxrs | Lxrβ activational capacity in combination with 22R-HC ([2]; acid 10 μM + 22R-HC 10 μM): No additive effect was observed | Competitor concentration with significant difference (p<0.05) from 10 μM 3β,7α-diHCA alone in TR-FRET Lxrβ coactivator assay ([3]; added to 10 μM 3β,7α-diHCA): ≥ 2 µM | Competition with 3β,7α-diHCA in TR-FRET Lxrβ coactivator assay ([3]; increasing concentrations with 3β,7α-diHCA at its most potent concentration): the effect of 3β,7α-diHCA was reduced to that of the latter acids | Abca1, Abcg1 and Srebf1 transcript levels [4]: induced transcription, but to a lesser extent | Toxicity to zebrafish embryos ([5]; 10 μM in medium): deleterious toxic effect which impaired the survival of the fish | Concentration at which toxicity is initiated (active caspase-3+ cells) ([6]; mouse, E11.5 mouse brain primary cultures, 3 days): 1000 nM | Number of Islet1+ cells [6]: caused the loss of Islet1+ cells in the cultures | Number of active caspase-3+ cells ([6]; wt cultures): increased the number of active caspase-3+ cells

C[C@H](CCC(=O)O)[C@H]1CC[C@H]2[C@@H]3CC=C4C[C@@H](O)CC[C@]4(C)[C@H]3CC[C@]12C [3βH-Δ^5-BA, 3β-hydroxychol-5-en-24-oic acid]
Fxr activation, luciferase activity [7]: also activated Fxr, but was less potent than CDCA

CC1=C(/C=C/C(C)=C\C=C\C(C)=C\C(=O)O)C(C)(C)CCC1 [9-cis-RA, 9-cis-retinoic acid]
Activation of DR5 element luciferase reporter [8]: activated this reporter

C[C@H](CCCC(C)(C)O)[C@H]1CC[C@H]2[C@@H]3CC=C4C[C@@H](O)CC[C@]4(C)[C@H]3CC[C@]12C [25-HC, cholest-5-ene-3β,25-diol]
Lxrα activation, luciferase activity [1]: activate Lxr | Lxr luciferase activity with the Lxr antagonist GGPP ([1]; metabolite 10 μM + GGPP 10 μM): similarly blocked | Lxrβ activation, luciferase activity [2]: activate Lxr | Islet-GFP expression in cranial nerves ([5]; 10 μM, 48 hpf): modest increase in the levels of Islet-1 | Effect on active caspase-3+ cells with GGPP ([6]; GGPP 10 μM, 3β,7β-diHCA, 3β-HCA at 2 μM): GGPP sensitive manner | Effect on Islet1+ cells in cultures from Lxrα−/−β−/− mice ([6]; Lxrα−/−β−/− cultures): blocked in cultures from Lxrα−/−β−/−animals | Number of Islet1+ cells [6]: increase the number of Islet1+ oculomotor cells | Effect on Islet1+ cells with Lxr antagonist GGPP ([6]; wt cultures, GGPP 10 μM): inhibited by the Lxr antagonist GGPP | Number of active caspase-3+ cells ([6]; wt cultures): reduced the number of active caspase-3+ cells
